# Test results reported in US20040067915A1, “Method to treat cardiofibrosis with a combination of an angiotensin II antagonist and spironolactone” (G.D. Searle & Co., priority 1995, published 2004).
# Target: T1, angiotensin II receptor (rabbit aortic rings) (Oryctolagus cuniculus, UniProt P34976)
# T1 construct: The thoracic aorta was removed, cleaned of adherent fat and connective tissue and then cut into 3-mm ring segments; from tissue; host or cells: rabbit thoracic aorta rings, endothelium removed
# T1 sequence (P34976 1-359): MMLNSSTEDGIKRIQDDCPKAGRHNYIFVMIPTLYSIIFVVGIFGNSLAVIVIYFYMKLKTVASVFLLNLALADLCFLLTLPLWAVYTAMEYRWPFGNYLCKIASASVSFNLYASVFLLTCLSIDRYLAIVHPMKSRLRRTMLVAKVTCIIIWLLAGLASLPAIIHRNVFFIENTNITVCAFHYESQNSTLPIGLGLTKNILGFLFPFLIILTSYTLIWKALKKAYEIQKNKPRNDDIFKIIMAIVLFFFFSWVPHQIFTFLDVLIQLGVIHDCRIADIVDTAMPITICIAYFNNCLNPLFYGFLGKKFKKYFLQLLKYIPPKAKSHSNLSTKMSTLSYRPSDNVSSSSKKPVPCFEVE
# Experiment: Assay B: In vitro Vascular Smooth Muscle Response for AII (rabbit aortic rings, pA2)
# Format: cell-based
# Set-up: key to Assay B pA2 (NC = Non-Competitive antagonist): NC=Non-Competitive antagonist
# Details: not given
# Method: Assay B: In vitro Vascular Smooth Muscle-response for AII
# The compounds of the invention were tested for antagonist activity in rabbit aortic rings. Male New Zealand white rabbits (2-2.5 kg) were sacrificed using an overdose of pentobarbital and exsanguinated via the carotid arteries. The thoracic aorta was removed, cleaned of adherent fat and connective tissue and then cut into 3-mm ring segments. The endothelium was removed from the rings by gently sliding a rolled-up piece of filter paper into the vessel lumen. The rings were then mounted in a water-jacketed tissue bath, maintained at 37° C., between moveable and fixed ends of a stainless steel wire with the moveable end attached to an FT03 Grass transducer coupled to a Model 7D Grass Polygraph for recording isometric force responses. […] The preparations were equilibrated for one hour before approximately one gram of passive tension was placed on the rings. Angiotensin II concentration-response curves were then recorded (3×10^−10 to 1×10^−5 M). Each concentration of AII was allowed to elicit its maximal contraction, and then AII was washed out repeatedly for 30 minutes before rechallenging with a higher concentration of AII. Aorta rings were exposed to the test antagonist at 10^−5 M for 5 minutes before challenging with AII. Adjacent segments of the same aorta ring were used for all concentration-response curves in the presence or absence of the test antagonist. The effectiveness of the test compound was expressed in terms of pA2 values and were calculated according to H. O. Schild [Br. J. Pharmacol. Chemother., 2, 189-206 (1947)]. The pA2 value is […] which increases the EC50 value for AII by a factor of two. Each test antagonist was evaluated in aorta rings from two rabbits.
# 2Assay B: In vitro Vascular Smooth Muscle Response
row,Structure (SMILES),Assay B pA2 (NC = Non-Competitive antagonist)
1,CCCCc1cn([C@H]2[C@H](C)CCC[C@@H]2C)c(=O)n1Cc1ccc(-c2ccccc2-c2nnn[nH]2)nc1 [Compound 236],NC
2,CCCCc1cn(-c2ccccc2CC)c(=O)n1Cc1ccc(-c2ccccc2-c2nnn[nH]2)cc1 [Compound 271],NC
3,CCCCc1cn(-c2ccccc2C(C)C)c(=O)n1Cc1ccc(-c2ccccc2-c2nnn[nH]2)cc1 [Compound 272],NC

# Same assay, conditions: two determinations given as a/b
row,Structure (SMILES),Kb [µM]
1,CCCCc1ncn(Cc2ccc(-c3ccccc3-c3nnn[nH]3)cc2)n1 [Compound 54],0.955
2,CCCCc1nc(CCCC2CCCCC2)n(Cc2ccc(-c3ccccc3-c3nnn[nH]3)cc2)n1 [Compound 57],1
3,CCCCc1nc(C)n(Cc2ccc(-c3ccccc3C(=O)O)cc2)n1 [Compound 77],1.7
4,CCCCc1nn(CCCC)c(=O)n1Cc1ccc(-c2ccccc2C(=O)O)cc1 [Compound 78],0.1
5,CCCCc1nn(CC(=O)C23CC4CC(CC(C4)C2)C3)c(=O)n1Cc1ccc(-c2ccccc2-c2nn[nH]n2)cc1 [Compound 80],0.00794
6,CCCCc1nn(CCCc2ccccc2)c(=O)n1Cc1ccc(-c2ccccc2-c2nn[nH]n2)cc1 [Compound 81],0.01
7,CCCCc1nn(CC(O)c2ccccc2)c(=O)n1Cc1ccc(-c2ccccc2-c2nn[nH]n2)cc1 (centres unmarked) [Compound 83],0.00501
8,CCCCc1nn(CC(=O)OC(C)(C)C)c(=O)n1Cc1ccc(-c2ccccc2-c2nn[nH]n2)cc1 [Compound 84],0.0794
9,CCCCCCn1nc(CCCC)n(Cc2ccc(-c3ccccc3-c3nn[nH]n3)cc2)c1=O [Compound 85],0.00126
10,CCCCc1nn(CC(=O)OCC)c(=O)n1Cc1ccc(-c2ccccc2-c2nn[nH]n2)cc1 [Compound 86],0.0158
11,CCCCc1nn(CC(=O)O)c(=O)n1Cc1ccc(-c2ccccc2-c2nn[nH]n2)cc1 [Compound 87],0.0158
12,CCCCc1nn(CCC2CCCCC2)c(=O)n1Cc1ccc(-c2ccccc2-c2nn[nH]n2)cc1 [Compound 89],0.0126
13,CCCCCn1nc(CCCC)n(Cc2ccc(-c3ccccc3-c3nn[nH]n3)cc2)c1=O [Compound 90],0.001
14,CCCCc1nn(CC(OCC(=O)O)c2ccccc2)c(=O)n1Cc1ccc(-c2ccccc2-c2nn[nH]n2)cc1 (centres unmarked) [Compound 91],0.00251
15,CCCCc1nn(CCC(C)CC(C)(C)C)c(=O)n1Cc1ccc(-c2ccccc2-c2nn[nH]n2)cc1 (centres unmarked) [Compound 92],0.0126
16,CCCCc1nn(C(=O)CCC)c(=O)n1Cc1ccc(-c2ccccc2-c2nn[nH]n2)cc1 [Compound 95],0.00631
17,CCCCc1nn(CC(=O)c2cc(OC)ccc2OC)c(=O)n1Cc1ccc(-c2ccccc2-c2nn[nH]n2)cc1 [Compound 96],0.01
18,CCCCc1nn(CC(OCc2ccccc2)c2ccccc2)c(=O)n1Cc1ccc(-c2ccccc2-c2nn[nH]n2)cc1 (centres unmarked) [Compound 97],0.02
19,CCCCc1nn(CC(O)c2cc(OC)ccc2OC)c(=O)n1Cc1ccc(-c2ccccc2-c2nn[nH]n2)cc1 (centres unmarked) [Compound 98],0.00794
20,CCCCc1nn(Cc2ccc3ccccc3c2)c(=O)n1Cc1ccc(-c2ccccc2-c2nn[nH]n2)cc1 [Compound 99],0.316
21,CCCCc1nn(C(CC(=O)OCC)C(=O)c2ccccc2)c(=O)n1Cc1ccc(-c2ccccc2-c2nn[nH]n2)cc1 (centres unmarked) [Compound 101],0.0158
22,CCCCc1nn(C(C)(C)C(=O)c2ccccc2)c(=O)n1Cc1ccc(-c2ccccc2-c2nn[nH]n2)cc1 [Compound 102],0.02

row,Structure (SMILES),Kb [µM]
1,CCCCc1nn(CCCCC(=O)O)c(=O)n1Cc1ccc(-c2ccccc2-c2nn[nH]n2)cc1 [Compound 103],0.01
2,CCCCn1nc(C(C#N)CCC)n(Cc2ccc(-c3ccccc3-c3nn[nH]n3)cc2)c1=O (centres unmarked) [Compound 106],0.02
3,CCCCc1nn(CC(OCC(=O)OCC)c2ccccc2)c(=O)n1Cc1ccc(-c2ccccc2-c2nn[nH]n2)cc1 (centres unmarked) [Compound 107],0.00501
4,CCCCc1nc2cnncc2n1Cc1ccc(-c2ccccc2C(=O)O)cc1 [Compound 108],5.01
5,CCCCc1nc2c(O)nnc(O)c2n1Cc1ccc(-c2ccccc2C(=O)O)cc1 [Compound 109],0.0501
6,CCCCc1nc2c(Cl)nnc(Cl)c2n1Cc1ccc(-c2ccccc2-c2nnn[nH]2)cc1 [Compound 110],0.398
7,CCCCc1nc2c(OCC)nnc(OCC)c2n1Cc1ccc(-c2ccccc2-c2nnn[nH]2)cc1 [Compound 112],6.31
8,CCCCc1nc2c(CCC)nnc(O)c2n1Cc1ccc(-c2ccccc2-c2nnn[nH]2)cc1 [Compound 113],0.00398
9,CCCCc1nc2c(O)nnc(CCC)c2n1Cc1ccc(-c2ccccc2-c2nn[nH]n2)cc1 [Compound 114],0.398
10,CCCCc1nc2c(O)nncc2n1Cc1ccc(-c2ccccc2-c2nnn[nH]2)cc1 [Compound 116],0.316
11,CCCCc1nc(Cc2ccc(-c3ccccc3C(=O)O)cc2)nn1CCCC [Compound 127],11
12,CCCCc1nc(Cc2ccc(-c3ccccc3-c3nnn[nH]3)cc2)nn1CCCC [Compound 129],5.01
13,CCCCc1cn(CCc2ccccc2)c(=O)n1Cc1ccc(-c2ccccc2-c2nnn[nH]2)cc1 [Compound 133],0.002
14,CCCCc1cn(CCc2cccs2)c(=O)n1Cc1ccc(-c2ccccc2-c2nnn[nH]2)cc1 [Compound 134],0.000501
15,CCCCc1cn(-c2ccccc2Cl)c(=O)n1Cc1ccc(-c2ccccc2-c2nnn[nH]2)cc1 [Compound 135],0.00316
16,CCCCc1c(C)n(CCCC)c(=O)n1Cc1ccc(-c2ccccc2-c2nnn[nH]2)cc1 [Compound 137],0.00501
17,CCCc1cn(CCC)c(=O)n1Cc1ccc(-c2ccccc2-c2nnn[nH]2)cc1 [Compound 138],0.00631
18,CCCCc1nc(Cl)c(Cl)n1Cc1ccc(-n2cccc2C(=O)O)cc1 [Compound 147],2.51
19,CCCCc1nc(Cl)c(CO)n1Cc1ccc(-n2cccc2C(=O)O)cc1 [Compound 148],1.58
20,CCCCc1cn(-c2c(C)cccc2C)c(=O)n1Cc1ccc(-c2ccccc2-c2nnn[nH]2)cc1 [Compound 275],0.000851
21,CCCCc1cn(-c2c(C(C)C)cccc2C(C)C)c(=O)n1Cc1ccc(-c2ccccc2-c2nnn[nH]2)cc1 [Compound 277],0.288

# System: pressor response to AII
# Experiment: Assay C: In vivo Intragastric Pressor Assay Response for AII Antagonists
# Details: dose 3 mg/kg, rat
# Method: Assay C: In vivo Intragastric Pressor Assay Response for All Antagonists
# Male Sprague-Dawley rats weighing 225-300 grams were anesthetized with methohexital (30 mg/kg, i.p.) and catheters were implanted into the femoral artery and vein. The catheters were tunneled subcutaneously to exit dorsally, posterior to the head and between the scapulae. The catheters were filled with heparin (1000 units/ml of saline). The rats were returned to their cage and allowed regular rat chow and water ad libitum. After full recovery from surgery (3-4 days), rats were placed in Lucite holders and the arterial line was connected to a pressure transducer. Arterial pressure was recorded on a Gould polygraph (mmHg). Angiotensin II was administered as a 30 ng/kg bolus via the venous catheter delivered in a 50 μl volume with a 0.2 ml saline flush. The pressor response in mm Hg was measured by the difference from pre-injection arterial pressure to the maximum pressure achieved. The AII injection was repeated every 10 minutes until three consecutive injections yielded responses within 4 mmHg of each other. These three responses were then averaged and represented the control response to AII. The test compound was suspended in 0.5% methylcellulose in water and was administered by gavage. The volume administered was 2 ml/kg body weight. The standard dose was 3 mg/kg. Angiotensin II bolus injections were given at 30, 45, 60, 75, 120, 150, and 180 minutes after gavage. The pressor response to AII was measured at each time point. The rats were then returned to their cage for future testing. A minimum of 3 days was allowed between tests. Percent inhibition was calculated for each time point following gavage by the following formula: [(Control Response—Response at time point)/Control Response]×100.
# 3Assay C: In vivo Pressor Response
row,Structure (SMILES),Assay C Duration [min]
1,CCCCc1nc2cnncc2n1Cc1ccc(-c2ccccc2-c2nnn[nH]2)cc1 [Compound 115],>240
2,CCCCc1nc2c(OC(C)=O)nnc(OC(C)=O)c2n1Cc1ccc(-c2ccccc2-c2nnn[nH]2)cc1 [Compound 125],>240

# Same assay, conditions: po, dose 3 mg/kg, rat, AII pressor response
row,Structure (SMILES),inhibition at 3 mg/kg [%]
1,CCCCc1nc2cnncc2n1Cc1ccc(-c2ccccc2-c2nnn[nH]2)cc1 [Compound 115],40
2,CCCCc1nc2c(OC(C)=O)nnc(OC(C)=O)c2n1Cc1ccc(-c2ccccc2-c2nnn[nH]2)cc1 [Compound 125],35
